Test system: recombinant NL-RLuc virus (HIV NL4-3 with Renilla Luciferase gene) in MT-2 cells
Assay: Inhibition of HIV replication (NL-RLuc virus, luciferase readout in MT-2 cells)
Assay type: cell-based
Conditions: MT2, 120 h, read-out: Activity
Text: Inhibition of HIV Replication:
A recombinant NL-RLuc proviral clone was constructed in which a section of the nef gene from NL4-3 was replaced with the Renilla Luciferase gene. This virus is fully infectious and can undergo multiple cycles of replication in cell culture. In addition, the luciferous reporter provides a simple and easy method for quantitating the extent of virus growth and consequently, the antiviral activity of test compounds. The plasmid pNLRLuc contains the proviral NL-Rluc DNA cloned into pUC18 at the PvuII site. The NL-RLuc virus was prepared by transfection of 293T cells with the plasmid pNLRLuc. Transfections were performed using the LipofectAMINE PLUS kit from Invitrogen (Carlsbad, Calif.) according to the manufacturer and the virus generated was titered in MT-2 cells. For susceptibility analyses, the titrated virus was used to infect MT-2 cells in the presence of compound, and after 5 days of incubation, cells were processed and quantitated for virus growth by the amount of expressed luciferase. Assay media was RPMI 1640 supplemented with 10% heat inactivated fetal bovine serum (FBS), 100 units/ml penicillin G/100 units/ml streptomycin, 10 mM HEPES buffer pH 7.55 and 2 mM L-glutamine. The results from at least 2 experiments were used to calculate the EC50 values. Luciferase was quantitated using the Dual Luciferase kit from Promega (Madison, Wis.). Susceptibility of viruses to compounds was determined by incubation in the presence of serial dilutions of the compound. The 50% effective concentration (EC50) was calculated by using the exponential form of the median effect equation where (Fa)=1/[1+(ED50/drug conc.)^m](Johnson V A, Byington R T. Infectivity Assay. In Techniques in HIV Research. ed. Aldovini A, Walker BD. 71-76. New York: Stockton Press. 1990). Activity equal to A refers to a compound having an EC50≤100 nM, while B and C denote compounds having an EC50 between 100 nM and 1 uM (B) or >1 uM (C).

Question: With `Cc1nc(C)c([C@H](OC(C)(C)C)C(=O)O)c(N2CCC(C)(C)CC2)c1-c1ccc2c(c1)CCN(CC1CCCOC1)C2` (stereo partly drawn) [Compound 1, (2S)-2-(tert-butoxy)-2-(4-(4,4-dimethylpiperidin-1-yl)-2,6-dimethyl-5-(2-((tetrahydro-2H-pyran-3-yl)methyl)-1,2,3,4-tetrahydroisoquinolin-6-yl)pyridin-3-yl)acetic acid] as the molecule, how does the EC50 read?
Answer: < 0.1 µM

Question: With `Cc1nc(C)c([C@H](OC(C)(C)C)C(=O)O)c(N2CCC(C)(C)CC2)c1-c1ccc2c(c1)CCN(CC1C[C@@H]3CC[C@H]1C3)C2` (stereo partly drawn) [Compound 2, (2S)-2-(5-(2-((1S,4R)-bicyclo[2.2.1]heptan-2-ylmethyl)-1,2,3,4-tetrahydroisoquinolin-6-yl)-4-(4,4-dimethylpiperidin-1-yl)-2,6-dimethylpyridin-3-yl)-2-(tert-butoxy)acetic acid] as the molecule, how does the EC50 read?
Answer: < 0.1 µM

Question: With `Cc1nc(C)c([C@H](OC(C)(C)C)C(=O)O)c(N2CCC(C)(C)CC2)c1-c1ccc2c(c1)CCN(CC1CCOC(C)(C)C1)C2` (stereo partly drawn) [Compound 3, (2S)-2-(tert-butoxy)-2-(4-(4,4-dimethylpiperidin-1-yl)-5-(2-((2,2-dimethyltetrahydro-2H-pyran-4-yl)methyl)-1,2,3,4-tetrahydroisoquinolin-6-yl)-2,6-dimethylpyridin-3-yl)acetic acid] as the molecule, how does the EC50 read?
Answer: < 0.1 µM

Question: `Cc1nc(C)c([C@H](OC(C)(C)C)C(=O)O)c(N2CCC(C)(C)CC2)c1-c1ccc2c(c1)CCN(CC1CC1)C2` [Compound 4, (S)-2-(tert-butoxy)-2-(5-(2-(cyclopropylmethyl)-1,2,3,4-tetrahydroisoquinolin-6-yl)-4-(4,4-dimethylpiperidin-1-yl)-2,6-dimethylpyridin-3-yl)acetic acid] was tested. Which EC50 did it give?
Answer: < 0.1 µM

Question: `Cc1nc(C)c([C@H](OC(C)(C)C)C(=O)O)c(N2CCC(C)(C)CC2)c1-c1ccc2c(c1)CCN(CC1CCCCC1)C2` [Compound 5, (S)-2-(tert-butoxy)-2-(5-(2-(cyclohexylmethyl)-1,2,3,4-tetrahydroisoquinolin-6-yl)-4-(4,4-dimethylpiperidin-1-yl)-2,6-dimethylpyridin-3-yl)acetic acid] was tested. Which EC50 did it give?
Answer: < 0.1 µM

Question: How did the EC50 turn out when `Cc1nc(C)c([C@H](OC(C)(C)C)C(=O)O)c(N2CCC(C)(C)CC2)c1-c1ccc2c(c1)CCN(C[C@H]1C[C@H]3C=C[C@@H]1C3)C2` [Compound 6, (S)-2-(5-(2-((1S,2S,4S)-bicyclo[2.2.1]hept-5-en-2-ylmethyl)-1,2,3,4-tetrahydroisoquinolin-6-yl)-4-(4,4-dimethylpiperidin-1-yl)-2,6-dimethylpyridin-3-yl)-2-(tert-butoxy)acetic acid] was run?
Answer: < 0.1 µM

Question: `Cc1nc(C)c([C@H](OC(C)(C)C)C(=O)O)c(N2CCC(C)(C)CC2)c1-c1ccc2c(c1)CCN(C[C@H]1C[C@@H]3C=C[C@H]1C3)C2` [Compound 7, (S)-2-(5-(2-((1R,2S,4R)-bicyclo[2.2.1]hept-5-en-2-ylmethyl)-1,2,3,4-tetrahydroisoquinolin-6-yl)-4-(4,4-dimethylpiperidin-1-yl)-2,6-dimethylpyridin-3-yl)-2-(tert-butoxy)acetic acid] was tested. Which EC50 did it give?
Answer: < 0.1 µM

Question: Which EC50 does the source give for `Cc1ncsc1CN1CCc2cc(-c3c(C)nc(C)c([C@H](OC(C)(C)C)C(=O)O)c3N3CCC(C)(C)CC3)ccc2C1` [Compound 8, (S)-2-(tert-butoxy)-2-(4-(4,4-dimethylpiperidin-1-yl)-2,6-dimethyl-5-(2-((4-methylthiazol-5-yl)methyl)-1,2,3,4-tetrahydroisoquinolin-6-yl)pyridin-3-yl)acetic acid] here?
Answer: < 0.1 µM

Question: Which EC50 does the source give for `Cc1nc(C)c([C@H](OC(C)(C)C)C(=O)O)c(N2CCC(C)(C)CC2)c1-c1ccc2c(c1)CCN(Cc1nccs1)C2` [Compound 9, (S)-2-(tert-butoxy)-2-(4-(4,4-dimethylpiperidin-1-yl)-2,6-dimethyl-5-(2-(thiazol-2-ylmethyl)-1,2,3,4-tetrahydroisoquinolin-6-yl)pyridin-3-yl)acetic acid] here?
Answer: < 0.1 µM

Question: `Cc1nc(C)c([C@H](OC(C)(C)C)C(=O)O)c(N2CCC(C)(C)CC2)c1-c1ccc2c(c1)CCN(Cc1cscn1)C2` [Compound 10, (S)-2-(tert-butoxy)-2-(4-(4,4-dimethylpiperidin-1-yl)-2,6-dimethyl-5-(2-(thiazol-4-ylmethyl)-1,2,3,4-tetrahydroisoquinolin-6-yl)pyridin-3-yl)acetic acid] was tested. Which EC50 did it give?
Answer: < 0.1 µM

Question: Which EC50 does the source give for `Cc1nc(C)c([C@H](OC(C)(C)C)C(=O)O)c(N2CCC(C)(C)CC2)c1-c1ccc2c(c1)CCN(Cc1cccnc1)C2` [Compound 11, (S)-2-(tert-butoxy)-2-(4-(4,4-dimethylpiperidin-1-yl)-2,6-dimethyl-5-(2-(pyridin-3-ylmethyl)-1,2,3,4-tetrahydroisoquinolin-6-yl)pyridin-3-yl)acetic acid] here?
Answer: < 0.1 µM

Question: With `Cc1nc(C)c([C@H](OC(C)(C)C)C(=O)O)c(N2CCC(C)(C)CC2)c1-c1ccc2c(c1)CCN(Cc1ccncc1)C2` [Compound 12, (S)-2-(tert-butoxy)-2-(4-(4,4-dimethylpiperidin-1-yl)-2,6-dimethyl-5-(2-(pyridin-4-ylmethyl)-1,2,3,4-tetrahydroisoquinolin-6-yl)pyridin-3-yl)acetic acid] as the molecule, how does the EC50 read?
Answer: < 0.1 µM

Question: `Cc1cc(CN2CCc3cc(-c4c(C)nc(C)c([C@H](OC(C)(C)C)C(=O)O)c4N4CCC(C)(C)CC4)ccc3C2)no1` [Compound 13, (S)-2-(tert-butoxy)-2-(4-(4,4-dimethylpiperidin-1-yl)-2,6-dimethyl-5-(2-((5-methylisoxazol-3-yl)methyl)-1,2,3,4-tetrahydroisoquinolin-6-yl)pyridin-3-yl)acetic acid] was tested. Which EC50 did it give?
Answer: < 0.1 µM

Question: Which EC50 does the source give for `Cc1nc(C)c([C@H](OC(C)(C)C)C(=O)O)c(N2CCC(C)(C)CC2)c1-c1ccc2c(c1)CCN(Cc1nc(-c3ccccc3)oc1C)C2` [Compound 14, (S)-2-(tert-butoxy)-2-(4-(4,4-dimethylpiperidin-1-yl)-2,6-dimethyl-5-(2-((5-methyl-2-phenyloxazol-4-yl)methyl)-1,2,3,4-tetrahydroisoquinolin-6-yl)pyridin-3-yl)acetic acid] here?
Answer: < 0.1 µM

Question: For `CCn1cncc1CN1CCc2cc(-c3c(C)nc(C)c([C@H](OC(C)(C)C)C(=O)O)c3N3CCC(C)(C)CC3)ccc2C1` [Compound 15, (S)-2-(tert-butoxy)-2-(4-(4,4-dimethylpiperidin-1-yl)-5-(2-((1-ethyl-1H-imidazol-5-yl)methyl)-1,2,3,4-tetrahydroisoquinolin-6-yl)-2,6-dimethylpyridin-3-yl)acetic acid], which EC50 is on record?
Answer: < 0.1 µM

Question: Which EC50 does the source give for `Cc1cc(CN2CCc3cc(-c4c(C)nc(C)c([C@H](OC(C)(C)C)C(=O)O)c4N4CCC(C)(C)CC4)ccc3C2)n(C)n1` [Compound 16, (S)-2-(tert-butoxy)-2-(5-(2-((1,3-dimethyl-1H-pyrazol-5-yl)methyl)-1,2,3,4-tetrahydroisoquinolin-6-yl)-4-(4,4-dimethylpiperidin-1-yl)-2,6-dimethylpyridin-3-yl)acetic acid] here?
Answer: < 0.1 µM

Question: With `Cc1nc(C)c([C@H](OC(C)(C)C)C(=O)O)c(N2CCC(C)(C)CC2)c1-c1ccc2c(c1)CCN(Cc1ncc[nH]1)C2` [Compound 17, (S)-2-(5-(2-((1H-imidazol-2-yl)methyl)-1,2,3,4-tetrahydroisoquinolin-6-yl)-4-(4,4-dimethylpiperidin-1-yl)-2,6-dimethylpyridin-3-yl)-2-(tert-butoxy)acetic acid] as the molecule, how does the EC50 read?
Answer: 0.1 to 1 µM

Question: How did the EC50 turn out when `Cc1nc(CN2CCc3cc(-c4c(C)nc(C)c([C@H](OC(C)(C)C)C(=O)O)c4N4CCC(C)(C)CC4)ccc3C2)c(C)o1` [Compound 18, (S)-2-(tert-butoxy)-2-(5-(2-((2,5-dimethyloxazol-4-yl)methyl)-1,2,3,4-tetrahydroisoquinolin-6-yl)-4-(4,4-dimethylpiperidin-1-yl)-2,6-dimethylpyridin-3-yl)acetic acid] was run?
Answer: < 0.1 µM

Question: How did the EC50 turn out when `Cc1nc(C)c([C@H](OC(C)(C)C)C(=O)O)c(N2CCC(C)(C)CC2)c1-c1ccc2c(c1)CCN(Cc1cnn(-c3ccc(F)cc3)c1)C2` [Compound 19, (S)-2-(tert-butoxy)-2-(4-(4,4-dimethylpiperidin-1-yl)-5-(2-((1-(4-fluorophenyl)-1H-pyrazol-4-yl)methyl)-1,2,3,4-tetrahydroisoquinolin-6-yl)-2,6-dimethylpyridin-3-yl)acetic acid] was run?
Answer: < 0.1 µM

Question: For `Cc1nc(C)c([C@H](OC(C)(C)C)C(=O)O)c(N2CCC(C)(C)CC2)c1-c1ccc2c(c1)CCN(Cc1cnc(-c3ccccc3)[nH]1)C2` [Compound 20, (S)-2-(tert-butoxy)-2-(4-(4,4-dimethylpiperidin-1-yl)-2,6-dimethyl-5-(2-((2-phenyl-1H-imidazol-5-yl)methyl)-1,2,3,4-tetrahydroisoquinolin-6-yl)pyridin-3-yl)acetic acid], which EC50 is on record?
Answer: < 0.1 µM

Same assay, conditions: MT2, 120 h, read-out: EC50 μM

Question: Which EC50 does the source give for `Cc1nc(C)c([C@H](OC(C)(C)C)C(=O)O)c(N2CCC(C)(C)CC2)c1-c1ccc2c(c1)CCN(CC1CCCOC1)C2` (stereo partly drawn) [Compound 1, (2S)-2-(tert-butoxy)-2-(4-(4,4-dimethylpiperidin-1-yl)-2,6-dimethyl-5-(2-((tetrahydro-2H-pyran-3-yl)methyl)-1,2,3,4-tetrahydroisoquinolin-6-yl)pyridin-3-yl)acetic acid] here?
Answer: 0.028 µM

Question: Which EC50 does the source give for `Cc1ncsc1CN1CCc2cc(-c3c(C)nc(C)c([C@H](OC(C)(C)C)C(=O)O)c3N3CCC(C)(C)CC3)ccc2C1` [Compound 8, (S)-2-(tert-butoxy)-2-(4-(4,4-dimethylpiperidin-1-yl)-2,6-dimethyl-5-(2-((4-methylthiazol-5-yl)methyl)-1,2,3,4-tetrahydroisoquinolin-6-yl)pyridin-3-yl)acetic acid] here?
Answer: 0.002 µM

Question: With `Cc1nc(C)c([C@H](OC(C)(C)C)C(=O)O)c(N2CCC(C)(C)CC2)c1-c1ccc2c(c1)CCN(Cc1nc(-c3ccccc3)oc1C)C2` [Compound 14, (S)-2-(tert-butoxy)-2-(4-(4,4-dimethylpiperidin-1-yl)-2,6-dimethyl-5-(2-((5-methyl-2-phenyloxazol-4-yl)methyl)-1,2,3,4-tetrahydroisoquinolin-6-yl)pyridin-3-yl)acetic acid] as the molecule, how does the EC50 read?
Answer: 0.016 µM

Question: Which EC50 does the source give for `Cc1nc(C)c([C@H](OC(C)(C)C)C(=O)O)c(N2CCC(C)(C)CC2)c1-c1ccc2c(c1)CCN(Cc1ncc[nH]1)C2` [Compound 17, (S)-2-(5-(2-((1H-imidazol-2-yl)methyl)-1,2,3,4-tetrahydroisoquinolin-6-yl)-4-(4,4-dimethylpiperidin-1-yl)-2,6-dimethylpyridin-3-yl)-2-(tert-butoxy)acetic acid] here?
Answer: 0.544 µM
